Data on 59 molecules can be found in US9023843B2, “Antimicrobial compounds and methods of making and using the same” (Melinta Therapeutics, Inc., priority 2009, dated 2015).

One may read the MIC as the smallest concentration in the dilution series that meets the test's criterion for growth inhibition.

The assay has as its system Eschericia coli strain ATCC25922. The assay is described as follows: standard microdilution assay to determine minimum inhibitory concentrations (MICs). The following applies: Escherichia coli, read-out: E. coli ATCC25922 MIC. The format is cell-based. As to the method: Minimum inhibitory concentrations (MICs) are determined by the microdilution method, typically in a final volume of 100 microliters, according to protocols outlined by The Clinical and Laboratory Standards Institute [CLSI; formerly the National Committee for Clinical Laboratory Standards (NCCLS)]. See CLSI: Methods for dilution antimicrobial susceptibility tests for bacteria that grow aerobically; approved standard-fifth edition. Wayne, Pa.: NCCLS; 2000. The assays can be also be performed in microtiter trays according to conventional methodologies as published by the CLSI. See CLSI. Methods for Dilution Antimicrobial Susceptibility Tests for Bacteria That Grow Aerobically; Approved Standard-Seventh Edition. CLSI Document M7-A7 [ISBN 1-56238-587-9] CLSI, 940 West Valley Road, Suite 1400, Wayne Pa. 19087-1898 USA, 2006).
The compounds of the present invention were tested for antimicrobial activity. The compounds were run against Eschericia coli strain ATCC25922 using a standard microdilution assay to determine minimum inhibitory concentrations (MICs). […] A “N/A” means that data is unavailable. It will be recognized by one skilled in the art that the compounds can be assessed against other bacterial organisms and that the presentation of data for activity against Eschericia coli is illustrative and in no way is intended to limit the scope of the present invention. The compounds of the present invention can be assayed against a range of other microorganisms depending upon the performance activity desired to be gathered. Furthermore, the “+”, “−”, and “N/A” representation and the selection of a cutoff value of 16 micrograms/ml is also illustrative and in no way is intended to limit the scope of the present invention.
With `NCCCNCc1ccc(-n2cc3c(nc2=O)Nc2ccc(CCc4ccc(F)cc4)cc2O3)cc1` [Compound 558], the minimal inhibitory concentration (MIC) was > 16 µg/mL.

Consider `NCCCN1CC=C(c2cnc3n(CCCN)c(-c4ccc(F)cc4)cn3c2=O)CC1` [Compound 568], for which the MIC is > 16 µg/mL.

As for `NCCCN1CC=C(c2cnc3[nH]c(-c4ccc(F)cc4)cn3c2=O)CC1` [Compound 569], the MIC is > 16 µg/mL.

On to `NCCCn1c(-c2ccc(F)cc2)cn2c(=O)c(C3=CCNCC3)cnc12` [Compound 570], for which the MIC is > 16 µg/mL.

For the molecule `N=C(N)NCCCCCN1CC[C@@H](n2cc3c(nc2=O)Nc2ccccc2O3)C1` [Compound 575], the MIC is > 16 µg/mL.

`N=C(N)NCCCCCN1CCCC(n2cc3c(nc2=O)Nc2ccccc2O3)CC1` (centres unmarked) [Compound 576]: the MIC was > 16 µg/mL.

Consider `O=c1nc2c(cn1C1CCNCC1)Oc1ccccc1N2` [Compound 578], for which the MIC is > 16 µg/mL.

`O=c1nc2c(cn1C1CCNCC1)Oc1ccc(CCc3cccc(F)c3)cc1N2` [Compound 579]: the MIC was > 16 µg/mL.

Regarding `NCCCN1CCC(n2cc3c(nc2=O)Nc2cc(CCc4cccc(F)c4)ccc2O3)CC1` [Compound 592, 3-[1-(3-Amino-propyl)-piperidin-4-yl]-7-[2-(3-fluoro-phenyl)-ethyl]-3H,9H-10-oxa-1,3,9-triaza-anthracen-2-one], the MIC is < 16 µg/mL.

As for `O=c1nc2c(cn1C1CCCNCC1)Oc1ccccc1N2` (centres unmarked) [Compound 595], the MIC was > 16 µg/mL.

With `NCCCN1CCCC(n2cc3c(nc2=O)Nc2ccccc2O3)CC1` (centres unmarked) [Compound 598], the minimal inhibitory concentration (MIC) is > 16 µg/mL.

On to `N=C(N)NCCCN1CCCC(n2cc3c(nc2=O)Nc2ccccc2O3)CC1` (centres unmarked) [Compound 603], for which the MIC is < 16 µg/mL.

For the molecule `NCCCCN1CCCC(n2cc3c(nc2=O)Nc2ccccc2O3)CC1` (centres unmarked) [Compound 604], the MIC was > 16 µg/mL.

In the case of `COC(=O)c1ccc2c(c1)Nc1nc(=O)n(C3CCN(CCCN)CC3)cc1O2` [Compound 606], the MIC is > 16 µg/mL.

For the molecule `CN(C)c1ncc(-c2ccc3c(c2)Nc2nc(=O)n(C4CCN(CCCN)CC4)cc2O3)cn1` [Compound 614], the minimum inhibitory concentration (MIC) is > 16 µg/mL.

On to `COc1ccc(-c2ccc3c(c2)Nc2nc(=O)n(C4CCN(CCCN)CC4)cc2O3)cc1F` [Compound 615], for which the MIC was > 16 µg/mL.

`CN(C)c1ncc(-c2ccc3c(c2)Nc2nc(=O)n(C4CCN(CCCNC(=N)N)CC4)cc2O3)cn1` [Compound 627]: the MIC was < 16 µg/mL.

In the case of `N=C(N)NCCCN1CCC(n2cc3c(nc2=O)Nc2cc(C(=O)NCc4ccc(Br)cc4)ccc2O3)CC1` [Compound 638], the MIC is > 16 µg/mL.

Take `N=C(N)NCCCN1CCC(n2cc3c(nc2=O)Nc2cc(C(=O)NCC(F)(F)F)ccc2O3)CC1` [Compound 639]: the MIC was > 16 µg/mL.

With `N=C(N)NCCCN1CCC(n2cc3c(nc2=O)Nc2cc(C(=O)NCCc4nc5ccccc5[nH]4)ccc2O3)CC1` [Compound 641], the MIC was > 16 µg/mL.

Take `N=C(N)NCCCN1CCC(n2cc3c(nc2=O)Nc2cc(C(=O)NCCCN4CCOCC4)ccc2O3)CC1` [Compound 642]: the MIC is > 16 µg/mL.

Turning to `N=C(N)NCCCN1CCC(n2cc3c(nc2=O)Nc2cc(C(=O)NCC(F)(F)C(F)(F)F)ccc2O3)CC1` [Compound 643], the MIC was > 16 µg/mL.

Take `N=C(N)NCCCN1CCC(n2cc3c(nc2=O)Nc2cc(-c4cccc(C(=O)N5CCOCC5)c4)ccc2O3)CC1` [Compound 651]: the MIC was > 16 µg/mL.

As for `N=C(N)NCCCN1CCC(n2cc3c(nc2=O)Nc2cc(C(=O)Nc4ccc(F)cc4F)ccc2O3)CC1` [Compound 656], the minimal inhibitory concentration (MIC) was > 16 µg/mL.

As for `N=C(N)NCCCN1CCCC(n2cc3c(nc2=O)Nc2cc(C(=O)Nc4ccc(F)cc4F)ccc2O3)CC1` (centres unmarked) [Compound 657], the minimal inhibitory concentration (MIC) was > 16 µg/mL.

As to `N=C(N)NCCCN1CCCC(n2cc3c(nc2=O)Nc2cc(C(=O)NCCCN4CCOCC4)ccc2O3)CC1` (centres unmarked) [Compound 658], the MIC was > 16 µg/mL.

Consider `N=C(N)NCCCN1CCC(n2cc3c(nc2=O)Nc2cc(C(=O)NCCc4ccc(F)cc4)ccc2O3)CC1` [Compound 659], for which the MIC is > 16 µg/mL.

For `NCCCN1CCC(n2cc3c(nc2=O)Nc2cc(C(=O)NCCc4ccc(F)cc4)ccc2O3)CC1` [Compound 660], the minimal inhibitory concentration (MIC) was > 16 µg/mL.

In the case of `N=C(N)NCCCN1CCCC(n2cc3c(nc2=O)Nc2cc(-c4ccc(N5CCOCC5)cc4)ccc2O3)CC1` (centres unmarked) [Compound 664], the MIC was > 16 µg/mL.

On to `N=C(N)NCCCN1CCCC(n2cc3c(nc2=O)Nc2cc(-c4ccc(C(F)(F)F)nc4)ccc2O3)CC1` (centres unmarked) [Compound 667], for which the MIC is > 16 µg/mL.

As for `N=C(N)NCCCN1CCC(n2cc3c(nc2=O)Nc2cc(C(=O)NCCN4CCOCC4)ccc2O3)CC1` [Compound 669], the MIC is > 16 µg/mL.

As to `N=C(N)NCCCNC1CCC(n2cc3c(nc2=O)Nc2cc(-c4ccc(C(F)(F)F)nc4)ccc2O3)CC1` (centres unmarked) [Compound 671], the MIC was > 16 µg/mL.

Turning to `NCCCNC1CCC(n2cc3c(nc2=O)Nc2cc(-c4ccc(C(F)(F)F)nc4)ccc2O3)CC1` (centres unmarked) [Compound 672], the MIC was > 16 µg/mL.

As to `N=C(N)NCCCN1CCC(n2cc3c(nc2=O)Nc2cc(C(=O)NCCCN4CCCC4=O)ccc2O3)CC1` [Compound 674], the MIC is > 16 µg/mL.

Consider `N=C(N)NCCCN1CCC(n2cc3c(nc2=O)Nc2cc(C(=O)Nc4ccccc4OC(F)(F)F)ccc2O3)CC1` [Compound 675], for which the MIC is > 16 µg/mL.

For `N#Cc1cccc(-c2ccc3c(c2)Nc2nc(=O)n(C4CCCN(CCCNC(=N)N)CC4)cc2O3)c1` (centres unmarked) [Compound 676], the MIC was > 16 µg/mL.

On to `Cn1cnc(S(=O)(=O)N2CCC(c3ccc4c(c3)Nc3nc(=O)n(C5CCN(CCCNC(=N)N)CC5)cc3O4)CC2)c1` [Compound 681], for which the MIC was > 16 µg/mL.

In the case of `N=C(N)NCCCN1CCC(n2cc3c(nc2=O)Nc2cc(C(=O)Nc4cc(F)c(F)cc4F)ccc2O3)CC1` [Compound 685], the MIC is > 16 µg/mL.

With `N=C(N)NCCCN1CCC(n2cc3c(nc2=O)Nc2cc(C(=O)Nc4ncn[nH]4)ccc2O3)CC1` [Compound 686], the MIC is > 16 µg/mL.

With `N=C(N)NCCCN1CCC(n2cc3c(nc2=O)Nc2cc(-c4ccc(C(F)(F)F)nc4)ccc2O3)CC1` [Compound 690], the MIC is > 16 µg/mL.

Take `CN(C)CC(=O)N1CCC(c2ccc3c(c2)Nc2nc(=O)n(C4CCN(CCCNC(=N)N)CC4)cc2O3)CC1` [Compound 691]: the MIC is > 16 µg/mL.

Regarding `N=C(N)NCCCN1CCC(n2cc3c(nc2=O)Nc2cc(C4CCN(S(=O)(=O)C5CC5)CC4)ccc2O3)CC1` [Compound 694], the MIC is > 16 µg/mL.

`N=C(N)NCCCN1CCCC(n2cc3c(nc2=O)Nc2cc(C(=O)NCCc4cnc[nH]4)ccc2O3)CC1` (centres unmarked) [Compound 707]: the minimum inhibitory concentration (MIC) was < 16 µg/mL.

Regarding `N=C(N)NCCCN1CCCC(n2cc3c(nc2=O)Nc2cc(C(=O)NCCC4CCNCC4)ccc2O3)CC1` (centres unmarked) [Compound 708], the MIC is < 16 µg/mL.

`NCCCN1CCC(n2cc3c(nc2=O)Nc2cc(C4CCN(C(=O)CN)CC4)ccc2O3)CC1` [Compound 714]: the MIC is > 16 µg/mL.

As to `N=C(N)NCCCN1CCC(n2cc3c(nc2=O)Nc2cc(C4CCN(C(=O)CNC(=N)N)CC4)ccc2O3)CC1` [Compound 715], the MIC was < 16 µg/mL.

As to `N=C(N)NCCCN1CCC(n2cc3c(nc2=O)Nc2cc(C4CCN(C(=O)C(N)CO)CC4)ccc2O3)CC1` (centres unmarked) [Compound 718], the MIC is > 16 µg/mL.

Consider `N=C(N)NCCCN1CCC(n2cc3c(nc2=O)Nc2cc(C4CCN(C(=O)Nc5ccc(C(F)(F)F)cc5)CC4)ccc2O3)CC1` [Compound 729], for which the MIC was < 16 µg/mL.

Turning to `N=C(N)NCCCN1CCC(n2cc3c(nc2=O)Nc2cc(C4CCN(C(=O)Nc5ccc(F)c(Cl)c5)CC4)ccc2O3)CC1` [Compound 730], the MIC was > 16 µg/mL.

Turning to `NCCCNC1CCC(n2cc3c(nc2=O)Nc2cc(C(=O)NCCCN4CCNCC4)ccc2O3)CC1` (centres unmarked) [Compound 731], the MIC is < 16 µg/mL.

Turning to `N=C(N)NCCCNC1CCC(n2cc3c(nc2=O)Nc2cc(C(=O)NCCCN4CCNCC4)ccc2O3)CC1` (centres unmarked) [Compound 732], the MIC was < 16 µg/mL.

On to `N=C(N)NCCCN1CCC(n2cc3c(nc2=O)Nc2cc(C4CCN(C(=O)Nc5ccc(F)cc5)CC4)ccc2O3)CC1` [Compound 733], for which the minimum inhibitory concentration (MIC) was > 16 µg/mL.

Take `N=C(N)NCCCN1CCC(n2cc3c(nc2=O)Nc2cc(C4CCN(S(=O)(=O)c5cccnc5)CC4)ccc2O3)CC1` [Compound 738]: the MIC is > 16 µg/mL.

Take `NCCCNC1CCC(n2cc3c(nc2=O)Nc2cc(C(=O)NCCN4CCNCC4)ccc2O3)CC1` (centres unmarked) [Compound 740]: the MIC is < 16 µg/mL.

For `N=C(N)NCCCNC1CCC(n2cc3c(nc2=O)Nc2cc(C(=O)NCCN4CCNCC4)ccc2O3)CC1` (centres unmarked) [Compound 741], the MIC was < 16 µg/mL.

For `NCCCN1CCC(n2cc3c(nc2=O)Nc2cc(C4CCN(C(=O)CN(Cc5ccc(F)c(F)c5)C5CCNCC5)CC4)ccc2O3)CC1` [Compound 748], the MIC is > 16 µg/mL.

Take `N=C(N)NCCCN1CCC(n2cc3c(nc2=O)Nc2cc(C4CCN(C(=O)CN(Cc5ccc(F)c(F)c5)C5CCNCC5)CC4)ccc2O3)CC1` [Compound 749]: the MIC is < 16 µg/mL.

For `Cn1cnc(S(=O)(=O)N2CCC(c3ccc4c(c3)Nc3nc(=O)n(C5CCC(NCCCNC(=N)N)CC5)cc3O4)CC2)c1` (centres unmarked) [Compound 750], the MIC is > 16 µg/mL.

As for `CN(C)CC(=O)N1CCC(c2ccc3c(c2)Nc2nc(=O)n(C4CCC(NCCCNC(=N)N)CC4)cc2O3)CC1` (centres unmarked) [Compound 751], the MIC is < 16 µg/mL.
